Assay results as given in ChEMBL document CHEMBL1135312, “N-Aroyl-L-phenylalanine derivatives as VCAM/VLA-4 antagonists” (Bioorg Med Chem Lett, 2002).

Assays:
[1] = target: T1, Integrin alpha-4/beta-1 (Homo sapiens, UniProt P05556+P13612); test: Inhibitory binding concentration against VCAM/VLA-4 in ELISA.; format: protein-complex assay
[2] = target: T1, Integrin alpha-4/beta-1; test: Inhibitory binding concentration against VCAM/VLA-4 in Ramos.; format: protein-complex assay

T1 sequence (P05556 whole entry): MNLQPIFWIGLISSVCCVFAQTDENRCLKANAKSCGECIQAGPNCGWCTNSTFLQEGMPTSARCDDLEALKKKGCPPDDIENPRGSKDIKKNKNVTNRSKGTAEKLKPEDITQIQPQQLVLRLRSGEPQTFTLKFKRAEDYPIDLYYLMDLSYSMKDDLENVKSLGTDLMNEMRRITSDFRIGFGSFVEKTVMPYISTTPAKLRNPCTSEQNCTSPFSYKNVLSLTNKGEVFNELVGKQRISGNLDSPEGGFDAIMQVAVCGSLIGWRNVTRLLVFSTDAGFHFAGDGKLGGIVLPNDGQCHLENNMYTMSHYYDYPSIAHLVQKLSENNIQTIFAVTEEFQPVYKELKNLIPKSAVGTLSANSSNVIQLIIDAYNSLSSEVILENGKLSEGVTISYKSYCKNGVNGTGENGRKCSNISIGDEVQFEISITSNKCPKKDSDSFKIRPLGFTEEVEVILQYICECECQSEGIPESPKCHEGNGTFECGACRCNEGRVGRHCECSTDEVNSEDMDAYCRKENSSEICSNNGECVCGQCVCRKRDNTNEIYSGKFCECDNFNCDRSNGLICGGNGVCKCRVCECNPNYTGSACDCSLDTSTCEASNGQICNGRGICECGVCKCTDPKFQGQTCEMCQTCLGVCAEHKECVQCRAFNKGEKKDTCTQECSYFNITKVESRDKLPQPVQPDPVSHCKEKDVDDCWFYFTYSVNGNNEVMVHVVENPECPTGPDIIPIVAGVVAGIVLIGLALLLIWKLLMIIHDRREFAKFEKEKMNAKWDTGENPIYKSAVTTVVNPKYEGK
T1 sequence (P13612 whole entry): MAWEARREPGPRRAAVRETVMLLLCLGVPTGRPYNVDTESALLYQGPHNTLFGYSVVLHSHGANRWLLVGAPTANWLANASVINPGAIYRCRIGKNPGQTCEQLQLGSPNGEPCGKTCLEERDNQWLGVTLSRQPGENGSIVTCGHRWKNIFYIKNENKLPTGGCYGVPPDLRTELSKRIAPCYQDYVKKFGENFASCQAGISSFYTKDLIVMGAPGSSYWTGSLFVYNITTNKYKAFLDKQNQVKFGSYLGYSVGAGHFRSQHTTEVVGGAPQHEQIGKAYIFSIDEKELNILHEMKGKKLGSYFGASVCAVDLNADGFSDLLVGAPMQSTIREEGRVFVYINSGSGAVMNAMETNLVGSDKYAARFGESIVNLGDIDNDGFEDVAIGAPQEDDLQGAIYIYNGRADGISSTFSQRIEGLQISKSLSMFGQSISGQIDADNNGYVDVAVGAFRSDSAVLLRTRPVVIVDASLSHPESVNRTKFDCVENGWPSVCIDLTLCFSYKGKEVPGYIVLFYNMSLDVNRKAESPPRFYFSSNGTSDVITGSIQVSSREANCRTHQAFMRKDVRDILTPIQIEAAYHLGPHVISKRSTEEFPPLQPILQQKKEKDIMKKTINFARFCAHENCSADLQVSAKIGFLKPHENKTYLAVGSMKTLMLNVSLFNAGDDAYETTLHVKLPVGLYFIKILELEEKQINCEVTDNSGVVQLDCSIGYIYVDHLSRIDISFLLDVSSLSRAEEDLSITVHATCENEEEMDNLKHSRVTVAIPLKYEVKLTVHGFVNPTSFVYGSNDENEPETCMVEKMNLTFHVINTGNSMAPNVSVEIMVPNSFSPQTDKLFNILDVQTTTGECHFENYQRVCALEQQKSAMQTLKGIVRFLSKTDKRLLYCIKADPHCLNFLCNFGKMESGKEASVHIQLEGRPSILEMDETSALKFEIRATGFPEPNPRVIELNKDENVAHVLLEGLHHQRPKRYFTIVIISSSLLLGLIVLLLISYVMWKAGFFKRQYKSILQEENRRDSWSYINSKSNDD

Row | Structure (SMILES) | IC50 [1] [nM] | IC50 [2] [nM]
1 | O=C(N[C@@H](Cc1ccc(NC(=O)c2c(Cl)cccc2Cl)cc1)C(=O)O)c1ccccc1C(F)(F)F | 16 | 650
2 | CCc1cccc(C)c1C(=O)N[C@@H](Cc1ccc(NC(=O)c2c(Cl)cccc2Cl)cc1)C(=O)O | 0.3 | 
3 | CCCc1cccc(C)c1C(=O)N[C@@H](Cc1ccc(NC(=O)c2c(Cl)cccc2Cl)cc1)C(=O)O | 0.42 | 17
4 | O=C(N[C@@H](Cc1ccc(NC(=O)c2c(Cl)cccc2Cl)cc1)C(=O)O)c1ccc(Br)cc1Cl |  | 1300
5 | Cc1cccc(C)c1C(=O)N[C@@H](Cc1ccc(NC(=O)c2c(Cl)cccc2Cl)cc1)C(=O)O | 1.3 | 84
6 | Cc1nc(C(C)C)sc1C(=O)N[C@@H](Cc1ccc(NC(=O)c2c(Cl)cccc2Cl)cc1)C(=O)O | 0.56 | 69
7 | O=C(Nc1ccc(C[C@H](NC(=O)c2c(F)cccc2C(F)(F)F)C(=O)O)cc1)c1c(Cl)cccc1Cl | 0.4 | 
8 | Cc1cc(C(F)(F)F)c(C(=O)N[C@@H](Cc2ccc(NC(=O)c3c(Cl)cccc3Cl)cc2)C(=O)O)c(C)n1 |  | 200
9 | CC(=O)c1cccc(Cl)c1C(=O)N[C@@H](Cc1ccc(NC(=O)c2c(Cl)cccc2Cl)cc1)C(=O)O | 1.6 | 49
10 | Cc1cccc(F)c1C(=O)N[C@@H](Cc1ccc(NC(=O)c2c(Cl)cccc2Cl)cc1)C(=O)O | 0.44 | 85
11 | O=C(N[C@@H](Cc1ccc(NC(=O)c2c(Cl)cccc2Cl)cc1)C(=O)O)c1cncnc1C(F)(F)F | 2 | 190
12 | CC(C)c1cccc(C(C)C)c1C(=O)N[C@@H](Cc1ccc(NC(=O)c2c(Cl)cccc2Cl)cc1)C(=O)O |  | 460
13 | COc1ccc(Br)c(C(=O)N[C@@H](Cc2ccc(NC(=O)c3c(Cl)cccc3Cl)cc2)C(=O)O)c1 |  | 19
14 | CNc1ccccc1C(=O)N[C@@H](Cc1ccc(NC(=O)c2c(Cl)cccc2Cl)cc1)C(=O)O |  | 1000
15 | Cc1ccnc(C)c1C(=O)N[C@@H](Cc1ccc(NC(=O)c2c(Cl)cccc2Cl)cc1)C(=O)O | 0.89 | 23
16 | O=C(N[C@@H](Cc1ccc(NC(=O)c2c(Cl)cccc2Cl)cc1)C(=O)O)c1sccc1Br | 1.5 | 890

Row | Structure (SMILES) | IC50 [1] [nM] | IC50 [2] [nM]
17 | O=C(N[C@@H](Cc1ccc(NC(=O)c2c(Cl)cccc2Cl)cc1)C(=O)O)c1cccc(Cl)c1Cl |  | 1600
18 | CSc1ccccc1C(=O)N[C@@H](Cc1ccc(NC(=O)c2c(Cl)cccc2Cl)cc1)C(=O)O | 0.4 | 100
19 | CS(=O)(=O)c1ccccc1C(=O)N[C@@H](Cc1ccc(NC(=O)c2c(Cl)cccc2Cl)cc1)C(=O)O |  | 160
20 | COc1ccccc1C(=O)N[C@@H](Cc1ccc(NC(=O)c2c(Cl)cccc2Cl)cc1)C(=O)O |  | 6800
21 | Cc1nn(-c2ccccc2)nc1C(=O)N[C@@H](Cc1ccc(NC(=O)c2c(Cl)cccc2Cl)cc1)C(=O)O | 25 | 1440
22 | CC(C)(C)c1ccccc1C(=O)N[C@@H](Cc1ccc(NC(=O)c2c(Cl)cccc2Cl)cc1)C(=O)O | 1.9 | 74
23 | O=C(N[C@@H](Cc1ccc(NC(=O)c2c(Cl)cccc2Cl)cc1)C(=O)O)c1ccccc1Br | 0.49 | 45
24 | Cc1cccc(C(=O)N[C@@H](Cc2ccc(NC(=O)c3c(Cl)cccc3Cl)cc2)C(=O)O)c1Cl |  | 1300
25 | Cc1ncccc1C(=O)N[C@@H](Cc1ccc(NC(=O)c2c(Cl)cccc2Cl)cc1)C(=O)O | 2 | 180
26 | Cc1ccc(Cl)c(C(=O)N[C@@H](Cc2ccc(NC(=O)c3c(Cl)cccc3Cl)cc2)C(=O)O)c1 | 11 | 460
27 | Cc1cccc(Cl)c1C(=O)N[C@@H](Cc1ccc(NC(=O)c2c(Cl)cccc2Cl)cc1)C(=O)O | 0.3 | 12
28 | Cc1noc(C)c1C(=O)N[C@@H](Cc1ccc(NC(=O)c2c(Cl)cccc2Cl)cc1)C(=O)O | 15 | 580
29 | O=C(N[C@@H](Cc1ccc(NC(=O)c2c(Cl)cccc2Cl)cc1)C(=O)O)c1cc(C(F)(F)F)ccc1Cl | 8.8 | 450
30 | COc1ccc(C(=O)N[C@@H](Cc2ccc(NC(=O)c3c(Cl)cccc3Cl)cc2)C(=O)O)c(Cl)c1 | 1.9 | 
31 | O=C(N[C@@H](Cc1ccc(NC(=O)c2c(Cl)cccc2Cl)cc1)C(=O)O)c1c(F)cccc1F | 1.2 | 67
